Measurements taken from patent US20090326014A1, “Use of 5-ht7 receptor agonists for the treatment of pain” (Laboratorios Del Dr. Esteve, S.A., priority 2006, published 2009).
Where “and” joins values, the source holds several entries; their conditions need not be identical. Equal entries are not always repeated. Entries after “also recorded” stand apart in the source; their conditions may differ. Where two headings read alike, the source gives them in different places.

Columns and labels:
h5-HT1A = biological target: T1, h5-HT1A (Homo sapiens, UniProt P08908); experiment: Radioligand binding assay, h5-HT1A
T1 sequence (P08908 1-422): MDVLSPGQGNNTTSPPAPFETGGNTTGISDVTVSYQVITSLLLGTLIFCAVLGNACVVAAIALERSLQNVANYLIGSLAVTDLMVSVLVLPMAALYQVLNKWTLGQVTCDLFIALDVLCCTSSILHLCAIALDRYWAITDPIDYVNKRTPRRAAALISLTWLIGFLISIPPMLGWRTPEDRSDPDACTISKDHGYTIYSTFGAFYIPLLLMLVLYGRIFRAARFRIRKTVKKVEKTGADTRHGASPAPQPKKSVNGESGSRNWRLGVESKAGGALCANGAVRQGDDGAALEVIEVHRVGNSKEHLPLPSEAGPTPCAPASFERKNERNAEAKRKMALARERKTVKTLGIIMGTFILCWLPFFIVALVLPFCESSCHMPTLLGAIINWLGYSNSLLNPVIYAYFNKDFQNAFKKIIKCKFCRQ

h5-HT2B = h5-HT2B (Homo sapiens, UniProt P41595); experiment: Radioligand binding assay, h5-HT2B
h5-HT2B, sequence (P41595 whole entry): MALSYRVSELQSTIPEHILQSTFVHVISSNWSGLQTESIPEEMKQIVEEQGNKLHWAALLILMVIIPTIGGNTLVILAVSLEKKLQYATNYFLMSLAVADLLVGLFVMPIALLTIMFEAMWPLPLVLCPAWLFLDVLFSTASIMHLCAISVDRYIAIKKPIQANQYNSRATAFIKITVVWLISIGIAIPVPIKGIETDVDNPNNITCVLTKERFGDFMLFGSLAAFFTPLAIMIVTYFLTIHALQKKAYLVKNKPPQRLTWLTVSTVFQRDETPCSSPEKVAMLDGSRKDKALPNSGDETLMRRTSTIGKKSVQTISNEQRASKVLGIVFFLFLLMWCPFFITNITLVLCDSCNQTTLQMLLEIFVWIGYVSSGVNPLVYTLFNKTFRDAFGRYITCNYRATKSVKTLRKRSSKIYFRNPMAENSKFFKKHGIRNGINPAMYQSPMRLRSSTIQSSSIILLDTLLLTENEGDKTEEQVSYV

h5-HT2C = h5-HT2C (Homo sapiens, UniProt P28335); experiment: Radioligand binding assay, h5-HT2C
h5-HT2C, sequence (P28335 33-458): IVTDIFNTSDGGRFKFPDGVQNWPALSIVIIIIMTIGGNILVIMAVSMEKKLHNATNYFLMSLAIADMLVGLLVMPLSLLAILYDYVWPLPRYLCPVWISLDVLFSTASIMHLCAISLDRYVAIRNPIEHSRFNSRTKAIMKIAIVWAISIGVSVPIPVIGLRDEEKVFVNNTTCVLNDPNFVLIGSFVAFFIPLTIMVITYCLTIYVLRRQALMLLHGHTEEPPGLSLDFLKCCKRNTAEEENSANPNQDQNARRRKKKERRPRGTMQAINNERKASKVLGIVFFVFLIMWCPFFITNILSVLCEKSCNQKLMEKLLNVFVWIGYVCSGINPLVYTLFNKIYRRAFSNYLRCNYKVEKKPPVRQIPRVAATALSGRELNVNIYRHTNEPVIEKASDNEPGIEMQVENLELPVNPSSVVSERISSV

h5-HT3 = biological target: T2, h5-HT3 (Homo sapiens, UniProt P46098); experiment: Radioligand binding assay, h5-HT3; details: read-out: Affinity [ki (nM)]
T2 sequence (P46098 24-478): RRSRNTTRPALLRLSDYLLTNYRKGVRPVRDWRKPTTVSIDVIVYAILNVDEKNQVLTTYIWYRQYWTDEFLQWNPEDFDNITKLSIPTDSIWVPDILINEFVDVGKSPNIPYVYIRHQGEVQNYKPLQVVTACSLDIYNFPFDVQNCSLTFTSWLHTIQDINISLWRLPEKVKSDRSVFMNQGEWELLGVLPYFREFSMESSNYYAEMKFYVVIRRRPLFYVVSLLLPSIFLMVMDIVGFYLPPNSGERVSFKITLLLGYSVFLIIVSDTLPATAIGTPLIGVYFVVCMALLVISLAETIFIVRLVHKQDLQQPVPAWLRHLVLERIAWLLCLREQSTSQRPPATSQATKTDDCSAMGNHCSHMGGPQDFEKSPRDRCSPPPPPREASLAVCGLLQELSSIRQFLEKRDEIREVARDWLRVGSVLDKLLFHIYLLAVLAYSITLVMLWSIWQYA
Experimental: (§1) Binding affinities were determined in radioligand binding assays according to their standard assays protocols. In case 1, the assays included in the LeadProfilingScreen package plus 5-HT1 non-selective, 5-HT2 non-selective, 5-HT2B, 5-HT2C, 5-HT4, 5-HT5A, 5-HT6 and 5-HT7 were performed. In case 2, assays included in the High-throughput profile plus 5-HT1D, 5-HT2B, 5-HT4e were performed. For AS-19 further assays were carried out to complete its selectivity profile for serotonin receptors, including 5-HT1B, 5-HT1D, 5-HT2A and 5-HT4a.

gp5-HT4 = gp5-HT4 (Cavia porcellus, UniProt O70528); experiment: Radioligand binding assay, gp5-HT4; set-up: species or system guinea pig; details: read-out: Affinity [ki (nM)]
gp5-HT4, sequence (O70528 whole entry): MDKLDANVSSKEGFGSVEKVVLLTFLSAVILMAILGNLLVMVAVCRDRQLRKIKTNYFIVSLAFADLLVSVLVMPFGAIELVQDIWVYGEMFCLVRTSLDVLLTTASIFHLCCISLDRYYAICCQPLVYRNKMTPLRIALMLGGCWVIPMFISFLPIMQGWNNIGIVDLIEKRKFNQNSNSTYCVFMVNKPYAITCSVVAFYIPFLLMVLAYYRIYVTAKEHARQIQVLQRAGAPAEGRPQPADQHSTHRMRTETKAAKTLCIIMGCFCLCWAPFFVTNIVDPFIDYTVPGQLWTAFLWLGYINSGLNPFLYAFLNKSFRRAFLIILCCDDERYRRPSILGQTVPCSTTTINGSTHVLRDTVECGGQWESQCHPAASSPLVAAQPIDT
Experimental: as §1

h5-HT5A = h5-HT5A (Homo sapiens, UniProt P47898); experiment: Radioligand binding assay, h5-HT5A; details: read-out: Affinity [ki (nM)]
h5-HT5A, sequence (P47898 whole entry): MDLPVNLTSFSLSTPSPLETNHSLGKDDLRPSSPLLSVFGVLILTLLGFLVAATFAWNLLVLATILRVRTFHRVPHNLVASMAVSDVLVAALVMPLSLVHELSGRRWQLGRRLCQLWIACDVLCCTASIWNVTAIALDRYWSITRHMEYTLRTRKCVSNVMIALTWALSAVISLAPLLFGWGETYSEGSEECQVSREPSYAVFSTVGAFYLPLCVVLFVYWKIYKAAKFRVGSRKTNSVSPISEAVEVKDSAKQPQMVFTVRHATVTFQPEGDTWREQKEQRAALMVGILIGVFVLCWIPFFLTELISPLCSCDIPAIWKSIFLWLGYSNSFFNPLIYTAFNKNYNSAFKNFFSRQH

h5-HT6 = h5-HT6 (Homo sapiens, UniProt P50406); experiment: Radioligand binding assay, h5-HT6
h5-HT6, sequence (P50406 whole entry): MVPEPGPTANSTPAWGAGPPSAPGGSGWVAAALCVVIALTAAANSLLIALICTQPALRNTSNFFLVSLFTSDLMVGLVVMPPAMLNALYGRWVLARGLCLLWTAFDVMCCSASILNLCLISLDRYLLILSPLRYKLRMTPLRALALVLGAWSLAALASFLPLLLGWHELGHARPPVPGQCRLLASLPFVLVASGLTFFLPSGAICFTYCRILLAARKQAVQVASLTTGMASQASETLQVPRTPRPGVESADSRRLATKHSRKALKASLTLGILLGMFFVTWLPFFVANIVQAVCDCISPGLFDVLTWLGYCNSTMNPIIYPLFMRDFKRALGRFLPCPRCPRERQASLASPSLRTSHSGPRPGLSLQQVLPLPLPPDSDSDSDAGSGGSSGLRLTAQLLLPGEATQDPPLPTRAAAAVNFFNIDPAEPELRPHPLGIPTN

h5-HT7 = h5-HT7 (Homo sapiens, UniProt P34969); experiment: biochemical; details: Affinity [ki (nM)]
h5-HT7, sequence (P34969 whole entry): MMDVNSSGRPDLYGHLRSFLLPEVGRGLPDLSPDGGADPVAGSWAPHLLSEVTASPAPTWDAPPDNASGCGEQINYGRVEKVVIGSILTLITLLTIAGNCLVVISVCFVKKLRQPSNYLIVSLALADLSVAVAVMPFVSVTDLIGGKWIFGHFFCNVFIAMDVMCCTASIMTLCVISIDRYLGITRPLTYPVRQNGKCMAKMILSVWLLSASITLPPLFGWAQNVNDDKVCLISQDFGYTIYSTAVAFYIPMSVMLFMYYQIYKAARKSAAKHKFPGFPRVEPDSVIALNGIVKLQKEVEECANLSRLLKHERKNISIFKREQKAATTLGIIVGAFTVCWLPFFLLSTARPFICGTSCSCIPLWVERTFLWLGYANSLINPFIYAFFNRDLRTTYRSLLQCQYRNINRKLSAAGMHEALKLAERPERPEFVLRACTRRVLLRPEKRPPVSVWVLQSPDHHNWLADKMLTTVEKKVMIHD

5-HT7 receptors [1] = biological target: T3, 5-HT7 receptors (Homo sapiens, UniProt P34969); experiment: cAMP measurement (HTRF) in HEK-293F cells stably expressing human 5-HT7 receptors; type: cell-based; set-up: expressed in transfected cells; host or cells: HEK-293F; details: for EC50: HEK-293F cells, human 5-HT7, mean ± SEM
T3 sequence (P34969 whole entry): as above
Experimental: The HTRF CAMP kit from CisBio was used according to the manufacturer's directions. The experimental procedure was performed as stated below. After overnight serum-free incubation, suspended cells (20,000 cells per well) were added to 96-well culture plates in incubation buffer composed of Ham's F12 (Gibco) plus 1 mM 3-isobutyl-1-methyl-xanthine (IBMX; Sigma) and 20 μM pargyline (Sigma).
For agonist and antagonist experiments, 2 μl of either compound or vehicle was added to each well on 40 μl of cell suspension at different concentrations, preincubating plates for 10 min at room temperature after compound addition.

[2] = tested on: capsaicin-induced mechanical allodynia; experiment: Capsaicin test, antiallodynic protocol (1 μg capsaicin, 1 g von Frey filament); details: for dose at which the antiallodynic effect reached the maximum: s.c.
Experimental: Animals were housed in groups of five, provided with food and water ad libitum and kept in controlled laboratory conditions with the temperature maintained at 21±1° C. and light in 12 h cycles (on at 07:00 h and off at 19:00 h). Experiments were carried out in a soundproof and air-regulated experimental room. The number of mice per group in each individual experiment was 16.
Capsaicin (8-methyl-N-vanillyl 6-nonamide) was dissolved in 1% DMSO (vehicle). […] Doses were calculated based on the molecular weight of the free base. All the compounds and vehicles (1% DMSO or physiological saline) were administered in a volume of 5 ml/kg through the subcutaneous (s.c.) route. When two compounds were co-administered, they were injected s.c. in opposite flanks of the mice.
Subplantar capsaicin injection initially evokes a nocifensive behavior that is characterized by lifting and guarding the injected paw and typically lasts up to 5 min following injection. […] In this study, sensitization by subplantar capsaicin injection was used to assess the effect of several 5-HT7 ligands on mechanical allodynia.
Drug treatments with 5-HT7 ligands were done 30 min before capsaicin injection and withdrawal latencies to a mechanical stimulus were determined 15 min after capsaicin injection (FIG. 1).
Mechanical allodynia was quantified by measuring the hind paw withdrawal response latency to von Frey filament stimulation. Mice were placed into compartment enclosures in a test chamber with a framed metal mesh floor and allowed to acclimate to their environment for 120 min before testing. […] The mechanical stimulus was applied to the plantar surface of the right, capsaicin-injected hind paw from below the mesh floor by using an automated testing device (dynamic plantar aesthesiometer; Ugo Basile, Italy) that lifts a straight filament (0.5 mm diameter). The filament exerted a fixed upward pressure (1 g or 0.25 g) on the plantar surface. When the animal withdrew its hind paw, the mechanical stimulus automatically stopped and the latency time was recorded. Latency was defined as the time from the onset of exposure to the filament to the cessation of the pressure when the sensor detected the withdrawal of the paw. A cut-off latency of 60 sec was imposed. Paw withdrawal latencies were measured in triplicate for each animal.
This approach enabled us to evaluate the possible antiallodynic effect of 5-HT7 ligands.
Data are presented as mean paw withdrawal latency responses in sec±S.E.M. Capsaicin-injected hind paw withdrawal responses to mechanical stimulation of treated mice were compared with those of untreated (vehicle-treated) mice. Statistical analysis to test intergroup comparisons was made using an initial one-way analysis of variance followed by the Newman-Keuls multiple comparison test. The level of significance was set at p<0.05.

h5-HT2A = h5-HT2A (Homo sapiens, UniProt P28223); experiment: Radioligand binding assay, h5-HT2A; details: read-out: Affinity [ki (nM)]
h5-HT2A, sequence (P28223 whole entry): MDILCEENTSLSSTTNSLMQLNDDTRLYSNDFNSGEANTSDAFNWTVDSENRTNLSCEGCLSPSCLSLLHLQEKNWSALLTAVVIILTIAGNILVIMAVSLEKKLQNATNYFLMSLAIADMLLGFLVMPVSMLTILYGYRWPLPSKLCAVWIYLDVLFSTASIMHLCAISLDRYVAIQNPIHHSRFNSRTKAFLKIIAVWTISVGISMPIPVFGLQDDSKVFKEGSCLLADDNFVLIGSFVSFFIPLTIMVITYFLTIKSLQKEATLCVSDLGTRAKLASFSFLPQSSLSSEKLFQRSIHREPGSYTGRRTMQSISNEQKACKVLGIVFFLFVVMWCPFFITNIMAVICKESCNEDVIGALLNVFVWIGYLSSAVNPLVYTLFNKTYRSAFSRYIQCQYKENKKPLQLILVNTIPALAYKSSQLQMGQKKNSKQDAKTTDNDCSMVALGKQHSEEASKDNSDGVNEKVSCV

[3] = tested on: mechanical allodynia induced by partial sciatic nerve ligation; experiment: Partial sciatic nerve ligation, von Frey test (mechanical allodynia); type: in vivo, mice; details: for effect on mechanical allodynia (von Frey pressure threshold), nerve-injured mice: days 11-13 post-injury
Description: Mechanical allodynia was quantified by measuring the tactile threshold for hind paw withdrawal following von Frey filament stimulation. […] The filament exerted an increasing upward pressure on the plantar surface. The pressure increased linearly with time (0.1 g/s; from 0 to 5 g in 50 s) until the mouse withdrew its paw. […] A cut-off threshold of 5 g (50 s) was imposed.
The filament of 0.4 g was first used. […] This up-down procedure was stopped four measures after the first change in animal responding and the threshold of response was calculated. Clear paw withdrawal, shaking was considered as a nociceptive-like response.

[4] = tested on: thermal hyperalgesia induced by partial sciatic nerve ligation; experiment: Partial sciatic nerve ligation, plantar test (thermal hyperalgesia)
Experimental: Animals were housed in groups of five, provided with food and water ad libitum and kept in controlled laboratory conditions with the temperature maintained at 21±1° C. and light in 12 h cycles (on at 07:00 h and off at 19:00 h). Experiments were carried out in a soundproof and air-regulated experimental room.
The rest of compounds were prepared as aqueous solutions. Doses were calculated based on the molecular weight of the free base. All the compounds and vehicles (1% DMSO or physiological saline) were administered in a volume of 5 ml/kg through the subcutaneous (s.c.) route. When two compounds were co-administered, they were injected s.c. in opposite flanks of the mice.
This model consists of partial injury to the sciatic nerve at mid-thigh level. All surgical procedures for nerve injury were performed under isoflurane (IsoFlo®, Abbott-Laboratorios Dr. Esteve, S. A., Barcelona, Spain) anesthesia (induction: 3%; surgery: 2%). Briefly, mice were anaesthetized and the common sciatic nerve was exposed at the level of the mid-thigh of the right hind paw. Partial nerve injury was produced at about 1 cm proximal to the nerve trifurcation by tying a tight ligature around approximately 33 to 50% the diameter of the sciatic nerve using 9-0 non-absorbable virgin silk suture (Alcon surgical, Texas, USA). Ligature enclosed the outer ⅓-½ sciatic nerve whereas the rest of the nerve (inner ⅔-½) was leaved “uninjured”. The muscle was then stitched with 6-0 silk suture and the skin incision was closed with wound clips. Control, sham-operated mice underwent the same surgical procedure and the sciatic nerve was exposed, but not ligated. After surgery, animals were allowed to recover for 5 days prior to initiation of nociceptive behavioral tests (see experimental protocol below).
The effectiveness of acute treatments with 5-HT7 ligands compared to vehicle on the expression of neuropathic pain was investigated based on the following experimental protocol. […] After the habituation period, pre-injury baseline responses in each test were established during 2 consecutive days. One day after baseline measurements, nerve injury or sham operation was induced as previously described. Mice were then tested in either the von Frey or the plantar test on day 5 after the surgical procedure to monitor post-injury responses. Post-injury baseline responses of mice treated with vehicle were obtained on day 10 (basal pre-treatment). On days 11-13 mice received treatment with three different doses of 5-HT7 ligands following a Latin square design. Finally, on day 14 after surgery, baseline responses in vehicle-treated mice (basal post-treatment) were evaluated as an internal control to ensure that mechanical allodynia and thermal hyperalgesia were not influenced by previous treatments in the Latin square design.

[5] = tested on: sciatic nerve-ligatured rats; experiment: Chronic constriction injury of the sciatic nerve (CCI-SN), Randall-Sellito test
Experimental: (§2) All compounds were prepared as aqueous solutions. […] When two compounds were co-administered, one was injected s.c. and the other i.p.
Briefly, the right common sciatic nerve was exposed at mid-tight level by blunt dissection through the biceps femoris muscle. Proximal to the trifurcation, ≈10 mm of nerve was freed from adhering tissue and four loose ligatures (5.0 chromic catgut) were tied around the sciatic nerve (≈1 mm apart). […] In sham-operated control rats, an identical dissection was performed on the right side allowing the sciatic nerve to be freed from surrounding tissue, but not ligatured. Finally, muscle and skin were closed in layers with silk thread.
Mechanical nociceptive thresholds, expressed as grams (g), were measured using the Randall-Sellito test (Ugo Basile analgesimeter; Bioseb, Chaville, France). An increasing pressure was applied to the nerve-injured hindpaw of unrestrained rats until paw withdrawal (PW) and then a squeak (i.e. the vocalization threshold when the paw was held under pressure) were obtained. As PW is a spinally coordinated reflex whereas vocalization is a supra-spinal integrated response (Kayser and Christensen, 2000), this test allowed assessment of the respective contribution of spinal versus supra-spinal mechanisms.

[6] = tested on: infraorbital nerve-ligatured rats; experiment: Chronic constriction injury of the infraorbital nerve (CCI-ION), von Frey filaments
Experimental: Food and water were available ad libitum. Rats were allowed to habituate to the housing facilities for at least 1 week before surgery.
as §2
After pentobarbital-induced anaesthesia, the head of the rat was fixed in a stereotaxic frame, and a mid-line scalp incision was made, exposing skull and nasal bone. The infraorbital part of the right infraorbital nerve was then exposed. The edge of the orbit, formed by the maxillary, frontal, lacrimal and zygomatic bones, was dissected free, and orbital contents were gently deflected to give access to the infraorbital nerve. The latter was then dissected free at its most rostral extent in the orbital cavity, just caudal to the infraorbital foreamen. […] Care was taken to avoid any interruption of the epineurial circulation. In sham-operated rats, the right infraorbital nerve was exposed, but it was not ligatured.
In these rats with unilateral ligatures on the infraorbital nerve, sensitivity to mechanical stimulation in the ipsilateral vibrissal territory was assessed by determination of pressure threshold, delivered through von Frey filaments (Semmes-Weinstein monofilaments, Stoelting, Wood Dale, Ill., USA), necessary to trigger defensive behavioural response (brisk withdrawal of the head; attack; escape reaction).

h5-HT1F = biological target: T4, h5-HT1F (Homo sapiens, UniProt P30939); experiment: Radioligand binding assay, h5-HT1F; details: read-out: Affinity [ki (nM)]
T4 sequence (P30939 1-366): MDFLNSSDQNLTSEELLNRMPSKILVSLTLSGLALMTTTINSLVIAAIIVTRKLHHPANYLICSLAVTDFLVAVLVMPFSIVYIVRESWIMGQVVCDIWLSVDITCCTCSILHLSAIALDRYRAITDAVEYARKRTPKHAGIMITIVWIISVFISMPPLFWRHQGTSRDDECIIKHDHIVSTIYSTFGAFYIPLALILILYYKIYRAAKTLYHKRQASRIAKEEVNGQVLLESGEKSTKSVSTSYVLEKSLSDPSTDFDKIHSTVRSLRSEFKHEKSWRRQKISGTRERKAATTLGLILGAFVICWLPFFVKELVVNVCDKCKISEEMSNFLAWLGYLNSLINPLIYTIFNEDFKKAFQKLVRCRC

[7] = tested on: capsaicin-induced mechanical allodynia; experiment: Capsaicin test, proallodynic protocol (4 ng capsaicin, 0.25 g von Frey filament); type: in vivo, mice; details: 10 mg/Kg s.c., 0.25 g pressure
Experimental: Alternatively, in some experiments, only 4 ng (instead of 1 μg) of capsaicin were injected into the paw and the pressure exerted by the filament was reduced to 0.25 g (instead of 1 g). […] This approach was used to test the possibility that treatments could exert a proallodynic effect. The FIG. 1 summarizes the two different experimental approaches carried out in this study.

5-HT7 receptors [8] = biological target: T3, 5-HT7 receptors; details: Mahe et al., 2004; Romero et al., 2006; cited from earlier work
5-HT1A = details: Foster et al., 1995; cited from earlier work

Cc1nn(C)c(C)c1-c1cccc2c1CC[C@H](N(C)C)C2 [AS-19]
Ki (h5-HT1A): 89.7 nM | Ki (h5-HT2B): > 1000 nM | Ki (h5-HT2C): > 1000 nM | Ki (h5-HT3): > 1000 nM | Ki (gp5-HT4): > 1000 nM | Ki (h5-HT5A): 98.5 nM | Ki (h5-HT6): > 1000 nM | Ki (h5-HT7): 0.605 nM and 0.6 nM | EC50 (5-HT7 receptors [1]; EC50 (nM), cAMP concentration-response curves): 8.87 ± 0.57 nM | Emax (5-HT7 receptors [1]; HEK293F): 77 ± 2.3% | EC50 (5-HT7 receptors [1]; pEC50, cAMP concentration-response curves): 8.71 nM | dose at which the antiallodynic effect reached the maximum ([2]; 1 g filament): 10 mg/kg

Cc1ccc(CNCC2(F)CCN(C(=O)c3ccc(F)c(Cl)c3)CC2)nc1 [F-13640, (3-Chloro-4-fluoro-phenyl)-[4-fluoro-4-{[(5-methyl-pyridin-2-ylmethyl)-amino]-methyl}piperidin-1-yl]methanone]
effect on capsaicin-induced mechanical allodynia ([2]; 1 mg/kg s.c., 1 g filament): inhibited

CN(C)CCSc1cccc(-c2ccccc2)n1 [MSD-5a, 2-(6-phenylpyridin-2-ylthio)-N,N-dimethylethanamine]
Ki (h5-HT1A; h5-HT1A, read-out: Affinity [ki (nM)]): 16 nM | Ki (h5-HT2A): 320 nM | effect on mechanical allodynia (von Frey pressure threshold), nerve-injured mice ([3]; 0.3 mg/kg s.c.): ineffective | effect on mechanical allodynia (von Frey pressure threshold), nerve-injured mice ([3]; 1 and 3 mg/kg s.c.): significantly inhibited mechanical allodynia; also recorded: restored thresholds of the nociceptive withdrawal response of nerve-injured paws to baseline pre-injury values | persistence of the antiallodynic effect after treatment ([3]; post-treatment thresholds, day 14 post-injury): disappeared the following day after last administration of MSD-5a | effect on nociceptive threshold in sham-operated mice ([3]; sham-operated, s.c., over the doses tested): did not produce any effects | effect on thermal hyperalgesia (paw withdrawal latency), nerve-injured mice ([4]; 0.3 mg/kg s.c.): did not exert analgesic (antihyperalgesic) effect | effect on thermal hyperalgesia (paw withdrawal latency), nerve-injured mice ([4]; 1 and 3 mg/kg s.c., days 11-13 post-injury): increased the withdrawal latency of nerve-injured paws to levels indistinguishable from control baseline pre-injury values | effect on thermal withdrawal latency in sham-operated mice ([4]; sham-operated, s.c.): had no effects | effect on capsaicin-induced mechanical allodynia (paw withdrawal latency vs vehicle) ([2]; 3, 10 and 30 mg/kg s.c., 1 g filament): increased the latencies of nociceptive paw withdrawal responses | effect on capsaicin-induced mechanical allodynia (paw withdrawal latency) ([2]; mice, 1 g filament, s.c. 30 min before capsaicin, over the doses tested): restored the nociceptive response of capsaicin-sensitized mice to baseline values | dose at which the antiallodynic effect reached the maximum ([2]; 1 g filament): 10 mg/kg | effect on mechanical nociceptive thresholds in sciatic nerve-ligatured rats ([5]; s.c., paw withdrawal and vocalization thresholds): clear-cut antihyperalgesic effects | effect on response threshold (mechanical allodynia) in infraorbital nerve-ligatured rats ([6]; s.c., von Frey filaments, ipsilateral vibrissal territory): clearly increased the threshold

CC1CCN(CC[C@H]2CCCN2S(=O)(=O)c2cccc(O)c2)CC1 [SB-269970, (R)-3-(2-(2-(4-Methylpiperidin-1-yl)ethyl)pyrrolidine-1-sulfonyl)phenol]
Ki (h5-HT1F): > 1000 nM | proallodynic effect (paw withdrawal latency) [7]: allodynia was evidenced | functionality at 5-HT7 receptor as described (5-HT7 receptors [8]): inverse agonist | effect on capsaicin-induced mechanical allodynia ([2]; 10 mg/kg s.c., alone, 1 g filament): did not modify paw withdrawal latencies | effect on the antiallodynic effect of AS-19 when co-administered ([2]; SB-269970 10 mg/kg + AS-19 5 mg/kg s.c.): blocked the antiallodynic effect of the agonist | effect on AS 19-induced anti-hyperalgesia/anti-allodynia ([5]; antagonist i.p., AS-19 s.c., sciatic nerve-ligated rats): Blockade | effect on 5a-MSD-induced anti-hyperalgesia/anti-allodynia ([6]; antagonist i.p., 5a-MSD s.c., infraorbital nerve-ligated rats): Blockade | effect on AS 19-induced anti-hyperalgesia/anti-allodynia ([6]; antagonist i.p., AS-19 s.c., infraorbital nerve-ligated rats): Blockade

COc1ccccc1N1CCN(CCN(C(=O)C2CCCCC2)c2ccccn2)CC1 [WAY-100635, N-(2-(4-(2-methoxyphenyl)-1-piperazinyl)ethyl)-N-(2-pyridinyl)cyclohexane carboxamide]
ID50 for block of 5-HT1A-mediated effects induced by 8-OH-DPAT (5-HT1A): 0.01 mg/kg | effect on capsaicin-induced mechanical allodynia ([2]; 0.1 and 0.3 mg/kg s.c., 1 g filament): unaffected | effect on capsaicin-induced mechanical allodynia ([2]; 0.5 and 1 mg/kg s.c., 1 g filament): significant increase in paw withdrawal latency | effect on the antiallodynic effect of AS-19 when co-administered ([2]; AS-19 at 5 and 10 mg/kg, WAY-100635 0.3 mg/kg or SB-258719 5 mg/kg s.c.): unaffected | effect on the antiallodynic effect of F-13640 when co-administered ([2]; WAY-100635 0.3 mg/kg + F-13640 1 mg/kg s.c.): blocked this antiallodynic effect
